Measurements taken from patent publication US7381540B2, “Composition for measuring glucose having improved substrate specificity” (Toyo Boseki Kabushiki Kaisha, priority 2005, dated 2008).

B1: wild type PQQGDH: wild type PQQ dependent glucose dehydrogenase (Toyobo GLD-321) (protein, listed as Acinetobacter baumannii)
chain: DIPLTPAQFAKAKTENFDKKVILSNLNKPHALLWGPDNQIWLTERATGKILRVNPVSGSAKTVFQVPEIVSDADGQNGLLGFAFHPDFKHNPYIYISGTFKNPKSTDKELPNQTIIRRYTYNKTTDTFEKPIDLIAGLPSSKDHQSGRLVIGPDQKIYYTIGDQGRNQLAYLFLPNQAQHTPTQQELNSKDYHTYMGKVLRLNLDGSVPKDNPSFNGVVSHIYTLGHRNPQGLAFAPNGKLLQSEQGPNSDDEINLVLKGGNYGWPNVAGYKDDSGYAYANYSAATNKSQIKDLAQNGIKVATGVPVTKESEWTGKNFVPPLKTLYTVQDTYNYNDPTCGEMAYICWPTVAPSSAYVYTGGKKAIPGWENTLLVPSLKRGVIFRIKLDPTYSTTLDDAIPMFKSNNRYRDVIASPEGNTLYVLTDTAGNVQKDDGSVTHTLENPGSLIKFTYNGK

What was measured:
[1] = test system: modified PQQGDH; assay: Maltose activity of glucose electrode loaded with modified PQQGDH (oxidation current, potassium ferricyanide mediator); format: biochemical, Acinetobacter baumannii strain NCIMB11517; conditions: for Maltose Activity (%): solute 50 mM, pH 5.5, glucose or maltose 4 mM, 0.1 M potassium ferricyanide, +0.35 V, 25° C.; for Maltose Activity of Glucose Electrode: 50 mM solvent, 1 mM calcium chloride, 0.1% Triton X-100
Procedure: 0.5 g of carbon graphite were placed in a mortar followed by the addition of 0.3 ml of liquid paraffin and kneading with a pestle for 30 minutes to produce a carbon paste. The resulting carbon paste was spread onto a platinum electrode followed by the addition of 10 μl of the modified PQQGDH solution (2,000 U/ml) produced in Example 2 and air drying for 30 minutes at room temperature. A cut cellulose semi-permeable membrane (molecular weight: 8,000) was placed over the dried enzyme electrode and the semi-permeable membrane was immobilized with plastic O-rings. The glucose electrode produced in this manner was then used after preliminarily immersing in the cold reaction solvent for 30 minutes.
The substances listed in Table 1 were used as solutes, and buffers were respectively prepared having a final concentration of 50 mM (pH 5.5). Each of the solvents contained an activator/stabilizer in the form of calcium chloride at 1 mM and surfactant in the form of 0.1% Triton X-100 in addition to the solute listed in Table 1. Potassium ferricyanide was dissolved in each of the produced solvents to a concentration of 0.1 M to prepare reaction solutions.
50 mM phosphoric acid or pimeric acid solution containing 1 mM calcium chloride and 0.1% Triton X-100 (consisting of three types having pH values of 5.0, 6.0 and 7.0, respectively) were prepared. Maltose activity of the glucose electrode was investigated for each according to the method of Example 5.

[2] = test system: modified PQQGDH; assay: Substrate specificity using glucose assay system (ferricyanide reduction, absorbance 420 nm); format: biochemical; conditions: potassium phosphate buffer pH 7.0
[3] = test system: modified PQQGDH; assay: as above; format: biochemical; conditions: for activity with respect to maltose compared with the control (in words): substrate concentration of 4.8 mM, in some cases
Procedure: D-glucose+ferricyanide ion+PQQGDH D-glucono-1,5-lactone+ferrocyanide ion
Specificity to each substrate can be determined by changing D-glucose to other saccharides. The presence of the ferrocyanide ion produced by reduction of the ferricyanide ion was confirmed by measuring the decrease of absorbance at a wavelength of 420 nm by spectrophotometry.
A. […]
B. Potassium ferricyanide solution: 50 mM (0.165 g potassium ferricyanide (molecular weight: 329.25) dissolved in 10 ml of distilled water)
C. PQQGDH solution: 31000 U/ml (approx. 128 mg PQQGDH (Toyobo: GLD-331) dissolved in 5 ml of distilled water)
D. Substrate solution (D-glucose solution or maltose solution): 100 or 400 mM
• 1. The following reaction mixture was prepared in a light shielding bottle, and stored on ice (prepared at use). 48.2 mL of each buffer solution (pH6.5) (A) • 4.0 mL of potassium ferricyanide solution (B) • 0.19 mL of (C) • 2. 2.65 ml of the reaction mixture and 0.3 ml of additive were placed in a test tube (plastic) and pre-warmed for 5 minutes at 37° C. • 3. 0.15 ml of substrate solution (D) were added and mixed gently. • 4. The reduction in the absorbance relative to water at 420 nm was recorded for 1 to 3 minutes with a spectrophotometer while maintaining at a temperature of 37° C., and the ΔOD per minute was calculated from the initial linear portion of the curve (ΔOD test). At the same time, the same procedure was carried out with the exception of adding distilled water instead of glucose solution followed by measurement of the blank (ΔOD blank).
The above-mentioned procedure was carried out at each of the predetermined concentrations shown in Tables 1 to 3 using as additives succinic acid, adipic acid, suberic acid, pimeric acid, potassium chloride, ammonium chloride, diammonium hydrogen citrate, malonic acid, L-lysine, taurine, 3,3-dimethylglutaric acid, malic acid, glutaric acid, calcium glycerate, amino-n-butyric acid, sodium glycolate, sodium α-ketoglutarate, fumaric acid, glycerin, glutamic acid and serine. And the procedure was also carried out for those not containing additives to assess the effects of additives.
Variation in absorbance per unit time was determined by calculating ΔOD/min(ΔOD test−ΔOD blank)
To evaluate whether activity had declined with respect to sugars other than glucose, the ΔOD/min (a) with D-glucose as the substrate solution and the ΔOD/min (b) with the other sugar in place of D-glucose as the substrate solution were measured, and the relative value ((b)/(a)×100) was calculated given 100 as the measurement value with glucose as the substrate.
In each of Tables 3 to 5, in the case the value of the ratio of measured values of maltose and glucose (maltose/glucose) relative to the control (control: no addition) is small, activity with respect to maltose during glucose measurement decreases.

[4] = Maltose activity of purified PQQGDH by GDH activity measurement (PMS/DCPIP, Test Example 1); format: biochemical, Acinetobacter baumannii strain NCIMB11517; conditions: substrate concentration in the assay mixture 4.8 mM; PIPES-NaOH pH 6.5, 37° C.
Procedure: D-glucose+PMS+PQQGDH→D-glucono-1,5-lactone+PMS (red)
PMS (red)+DCPIP→PMS+DCPIP (red)
The presence of DCPIP (red) formed by reduction of […] (DCPIP) by phenazine methosulfate (PMS) (red) was measured by spectrophotometry at 600 nm.
• A. D-glucose reagent: 1.0 M (1.8 g D-glucose (molecular weight: 180.16)/10 ml H2O) • B. PIPES-NaOH buffer: pH 6.5, 50 mM (1.51 g of PIPES (molecular weight: 302.36) suspended in 60 ml of water dissolved in 5 N NaOH followed by the addition of 2.2 ml of 10% Triton X-100; adjusted to pH of 6.5±0.5 at 25° C. using 5 N NaOH and brought to a final volume of 100 ml by addition of water) • C. PMS solution: 24 mM (73.52 mg of phenazine methosulfate (molecular weight: […])/10 ml H2O) • D. DCPIP solution: 2.0 mM (6.5 mg of […]/10 ml H2O • E. Enzyme diluent: 50 mM PIPES-NaOH buffer containing 1 mM CaCl2, 0.1% Triton X-100 and 0.1% BSA (pH: 6.5) Procedure:
The following reaction mixture was prepared in a light-protected bottle and stored on ice (prepared at the time of use). • 1. […]
The reduction in the absorbance relative to water at 600 nm was recorded for 4 to 5 minutes with a spectrophotometer while maintaining the temperature of the mixture at 37° C., and the ΔOD per minute was calculated from the initial linear portion of the curve (OD test). […]
Activity was calculated using the following formula. […]

[5] = reagent 0.5%, substrate 4.8 mM, control 0.85
[6] = reagent 1%, substrate 4.8 mM, control 0.85
[7] = reagent 2%, substrate 4.8 mM, control 0.85
[8] = reagent 2%, substrate 19.2 mM, control 0.93
[9] = glutaric acid buffer pH 7.0, reagent 0.1%, substrate 4.8 mM, control 0.86
[10] = glutaric acid buffer pH 7.0, reagent 0.1%, substrate 19.2 mM, control 0.94
[11] = glutaric acid buffer pH 7.0, reagent 1%, substrate 4.8 mM, control 0.86
[12] = glutaric acid buffer pH 7.0, reagent 1%, substrate 19.2 mM, control 0.94
[13] = potassium phosphate buffer pH 7.0, reagent 0.5%, substrate 19.2 mM, control 0.93
[14] = potassium phosphate buffer pH 7.0, reagent 1%, substrate 19.2 mM, control 0.93
[15] = phthalic acid buffer pH 7.0, reagent 0.05%, substrate 4.8 mM, control 0.72
[16] = phthalic acid buffer pH 7.0, reagent 0.05%, substrate 19.2 mM, control 0.75
[17] = phthalic acid buffer pH 7.0, reagent 0.1%, substrate 4.8 mM, control 0.72
[18] = phthalic acid buffer pH 7.0, reagent 0.1%, substrate 19.2 mM, control 0.75
[19] = phthalic acid buffer pH 7.0, reagent 0.2%, substrate 4.8 mM, control 0.72
[20] = phthalic acid buffer pH 7.0, reagent 0.2%, substrate 19.2 mM, control 0.75

Molecule	Maltose Activity (%) [1] [%]	Maltose/glucose ratio [2, 5]	Maltose/glucose ratio [2, 6]	Maltose/glucose ratio [2, 7]	Maltose/glucose ratio [2, 8]	Maltose/glucose ratio [3, 9]	Maltose/glucose ratio [3, 10]	Maltose/glucose ratio [3, 11]	Maltose/glucose ratio [3, 12]	Maltose/glucose ratio [3, 13]	Maltose/glucose ratio [3, 14]	Maltose/glucose ratio [3, 15]	Maltose/glucose ratio [3, 16]	Maltose/glucose ratio [3, 17]	Maltose/glucose ratio [3, 18]	Maltose/glucose ratio [3, 19]	Maltose/glucose ratio [3, 20]	activity with respect to maltose compared with the control (in words) [3]	also measured
CC(C)(CC(=O)O)CC(=O)O [3,3-dimethylglutaric acid]	14.9	0.60	0.44	0.41	0.49	0.56	0.76	0.37	0.47	0.82	0.64	–	–	–	–	–	–	–	–
O=C(O)CCCCCC(=O)O [Pimeric acid]	23.1	0.71	0.58	0.44	0.58	0.63	0.78	0.39	0.44	0.86	0.80	0.64	0.64	0.71	0.58	0.76	0.58	did not decrease	maltose activity on lowering the pH (in words) ([1]; pH 5.0, 6.0, 7.0, compared with phosphoric acid): decrease more; Maltose Activity of Glucose Electrode ([1]; pH 5.0): 15.2%; Maltose Activity of Glucose Electrode ([1]; pH 6.0): 23.8%; Maltose Activity of Glucose Electrode ([1]; pH 7.0): 49.1%
O=C(O)CCCCCCC(=O)O [Suberic acid]	20.2	–	–	–	–	–	–	–	–	–	–	–	–	–	–	–	–	–	Maltose/glucose ratio ([3]; glutaric acid buffer pH 7.0, reagent 0.03%, substrate 4.8 mM, control 0.86): 0.68; Maltose/glucose ratio ([3]; glutaric acid buffer pH 7.0, reagent 0.03%, substrate 19.2 mM, control 0.94): 0.86; Maltose/glucose ratio ([3]; glutaric acid buffer pH 7.0, reagent 0.33%, substrate 4.8 mM, control 0.86): 0.38; Maltose/glucose ratio ([3]; glutaric acid buffer pH 7.0, reagent 0.33%, substrate 19.2 mM, control 0.94): 0.49; Maltose/glucose ratio ([3]; phthalic acid buffer pH 7.0, reagent 0.017%, substrate 4.8 mM, control 0.72): 0.66; Maltose/glucose ratio ([3]; phthalic acid buffer pH 7.0, reagent 0.017%, substrate 19.2 mM, control 0.75): 0.69; Maltose/glucose ratio ([3]; phthalic acid buffer pH 7.0, reagent 0.033%, substrate 4.8 mM, control 0.72): 0.67; Maltose/glucose ratio ([3]; phthalic acid buffer pH 7.0, reagent 0.033%, substrate 19.2 mM, control 0.75): 0.62; Maltose/glucose ratio ([3]; phthalic acid buffer pH 7.0, reagent 0.066%, substrate 4.8 mM, control 0.72): 0.70; Maltose/glucose ratio ([3]; phthalic acid buffer pH 7.0, reagent 0.066%, substrate 19.2 mM, control 0.75): 0.55
O=C(O)CCC(=O)O [Succinic acid]	22.5	0.65	0.47	0.34	0.45	0.55	0.75	0.35	0.52	0.84	0.62	0.65	0.56	0.73	0.57	0.77	0.60	did not decrease	–
B1	–	–	–	–	–	–	–	–	–	–	–	–	–	–	–	–	–	–	maltose activity (ratio of the activity value when using maltose to the activity value when using glucose) [4]: 110%
